Patent publication US20230083012A1, “DIHYDROPYRIMIDINE DERIVATIVES AND USES THEREOF IN THE TREATMENT OF HBV INFECTION OR OF HBV-INDUCED DISEASES” (priority 2019, published 2023)

Assays:
[1] = system: HBV; experiment: Anti-HBV activity in HepG2.2.15 cells (HBV DNA in culture medium by qPCR); assay type: cell-based; conditions: Hepatitis B virus, HepG2.2.15, 144 h, HepG2.2.15 cells, 6 days treatment, HBV DNA in culture medium quantified by real-time PCR; read-out: EC50
Summary of the method: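 HepG2.2.15 cells in 2% FBS medium at 37 °C were treated with compounds for 6 days, with medium and compound refreshed at day 3; 1:3 dilutions, 8 concentrations in triplicate, top 10 or 1 uM. HBV DNA in culture medium quantified by qPCR to derive EC50; CC50 from parallel plates (top 100 uM).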

[2] = Cytotoxicity determination in HepG2.2.15 cells (CCK-8 cell viability); assay type: cell-based; conditions: human, 6 days treatment, CCK-8 assay, highest concentration 100 uM
Summary of the method: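 HepG2.2.15 cells seeded at 5,000 cells/well in 2% FBS medium, exposed 6 days to compounds (8-point 1:3 dilutions from 100 uM, triplicate), refreshed at day 3. Viability read by CCK-8 after 2.5 h at 37° C, absorbance 450 nm with 630 nm reference; CC50 calculated.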

SMILES | EC50 [1] [nM] | CC50 at 6 days [2] [nM]
CCOC(=O)C1=C(CN2CC(F)(F)[C@@H]3CN(S(=O)(=O)[C@H]4C[C@H](C(=O)O)C4)C[C@@H]32)NC(c2nccs2)=N[C@H]1c1cccc(F)c1C (single isomer, unassigned) [Compound 194] | 71.3 | 36700
CCOC(=O)C1=C(CN2CC(F)(F)[C@@H]3CN(C(C)(C)C(=O)O)C[C@@H]32)NC(c2nccs2)=N[C@H]1c1cccc(F)c1C (single isomer, unassigned) [Compound 195] | 40.3 | 96600
CCOC(=O)C1=C(CN2CC(F)(F)[C@@H]3CN(C4(C(=O)O)CC4)C[C@@H]32)NC(c2nccs2)=N[C@H]1c1cccc(F)c1C (single isomer, unassigned) [Compound 196] | 3.3 | 12800
CCOC(=O)C1=C(CN2CC(F)(F)[C@@H]3CN(C4(C(=O)O)CC4)C(=O)C32)NC(c2nccs2)=N[C@H]1c1cccc(F)c1C (single isomer, unassigned) [Compound 197] | 14.2 | 26000
CCOC(=O)C1=C(CN2CC(F)(F)[C@@H]3C(=O)N(C4(C(=O)O)CC4)C[C@@H]32)NC(c2nccs2)=N[C@H]1c1cccc(F)c1C (single isomer, unassigned) [Compound 198] | 96 | 99600
CCOC(=O)C1=C(CN2CC(F)(F)[C@@H]3C(=O)N(CC4(C(=O)O)CCCC4)C[C@@H]32)NC(c2nccs2)=N[C@H]1c1cccc(F)c1C (single isomer, unassigned) [Compound 199] | 11.8 | 35900
CCOC(=O)C1=C(CN2CC(F)(F)[C@@H]3C(=O)N(CC(C)(C)c4nn[nH]n4)C[C@@H]32)NC(c2nccs2)=N[C@H]1c1cccc(F)c1C (single isomer, unassigned) [Compound 200] | 34.7 | 91300
CCOC(=O)C1=C(CN2CC(F)(F)[C@@H]3CN(CC(C)(C)C(=O)O)C[C@@H]32)NC(c2nccs2)=N[C@@H]1c1ccc(F)nc1C (single isomer, unassigned) [Compound 201, 3-((cis)-1-((5-(ethoxycarbonyl)-6-(6-fluoro-2-methylpyridin-3-yl)-2-(thiazol-2-yl)-3,6-dihydropyrimidin-4-yl)methyl)-3,3-difluorohexahydropyrrolo[3,4-b]pyrrol-5(1H)-yl)-2,2-dimethylpropanoic acid] | 72.6 | > 100000
CCOC(=O)C1=C(CN2CC(F)(F)[C@@H]3C(=O)N(CC(CC)(CC)C(=O)O)C[C@@H]32)NC(c2nccs2)=N[C@H]1c1cccc(F)c1C (single isomer, unassigned) [Compound 202] | 23 | 100000
CCOC(=O)C1=C(CN2C[C@@H](F)[C@@]3(F)CN(CC(C)(C)C(=O)O)C(=O)[C@@H]23)NC(c2nccs2)=N[C@H]1c1cccc(F)c1C (single isomer, unassigned) [Compound 203A] | 16.7 | 44600
CCOC(=O)C1=C(CN2C[C@@H](F)[C@@]3(F)C(=O)N(CC(C)(C)C(=O)O)C[C@@H]23)NC(c2nccs2)=N[C@H]1c1cccc(F)c1C (single isomer, unassigned) [Compound 204A] | 11.2 | 88900
CCOC(=O)C1=C(CN2C[C@H](F)[C@]3(F)C(=O)N(CC(C)(C)C(=O)O)C[C@H]23)NC(c2nccs2)=N[C@H]1c1cccc(F)c1C (single isomer, unassigned) [Compound 204B] | 102 | 72100
CCOC(=O)C1=C(CN2C[C@H](F)[C@@]3(F)C(=O)N(CC(C)(C)C(=O)O)C[C@@H]23)NC(c2nccs2)=N[C@H]1c1cccc(F)c1C (single isomer, unassigned) [Compound 204C] | 7.1 | 36900
CCOC(=O)C1=C(CN2C[C@@H](F)[C@]3(F)C(=O)N(CC(C)(C)C(=O)O)C[C@H]23)NC(c2nccs2)=N[C@H]1c1cccc(F)c1C (single isomer, unassigned) [Compound 204D] | 0.4 | 48100
CCOC(=O)C1=C(CN2CC(F)(F)[C@@H]3CN(S(=O)(=O)[C@H]4C[C@](C)(C(=O)O)C4)C[C@@H]32)NC(c2nccs2)=N[C@H]1c1cccc(F)c1C (single isomer, unassigned) [Compound 205A] | 114 | > 50000
CCOC(=O)C1=C(CN2CC(F)(F)[C@@H]3CN(S(=O)(=O)[C@H]4C[C@@](C)(C(=O)O)C4)C[C@@H]32)NC(c2nccs2)=N[C@H]1c1cccc(F)c1C (single isomer, unassigned) [Compound 205B] | 103 | > 50000
COC(=O)C1=C(CN2CC(F)(F)[C@@H]3CN(C(=O)C(C)(C)C(=O)O)C[C@@H]32)NC(c2nccs2)=N[C@H]1c1cccc(F)c1Cl (single isomer, unassigned) [Compound 206, 3-((cis)-1-((6-(2-chloro-3-fluorophenyl)-5-(methoxycarbonyl)-2-(thiazol-2-yl)-3,6-dihydropyrimidin-4-yl)methyl)-3,3-difluorohexahydropyrrolo[3,4-b]pyrrol-5(1H)-yl)-2,2-dimethyl-3-oxopropanoic acid] | 39.3 | > 100000
CCOC(=O)C1=C(CN2CC(F)(F)[C@@H]3CN(C(=O)C(C)(C)C(=O)O)C[C@@H]32)NC(c2nccs2)=N[C@H]1c1cccc(F)c1Cl (single isomer, unassigned) [Compound 207, 3-((cis)-1-((6-(2-chloro-3-fluorophenyl)-5-(ethoxycarbonyl)-2-(thiazol-2-yl)-3,6-dihydropyrimidin-4-yl)methyl)-3,3-difluorohexahydropyrrolo[3,4-b]pyrrol-5(1H)-yl)-2,2-dimethyl-3-oxopropanoic acid] | 59 | > 50000
COC(=O)C1=C(CN2CC(F)(F)[C@@H]3CN(C(=O)C(C)(C)C(=O)O)C[C@@H]32)NC(c2nccs2)=N[C@H]1c1ccc(F)cc1Cl (single isomer, unassigned) [Compound 208, 3-((cis)-1-((6-(2-chloro-4-fluorophenyl)-5-(methoxycarbonyl)-2-(thiazol-2-yl)-3,6-dihydropyrimidin-4-yl)methyl)-3,3-difluorohexahydropyrrolo[3,4-b]pyrrol-5(1H)-yl)-2,2-dimethyl-3-oxopropanoic acid] | 28.6 | > 100000
COC(=O)C1=C(CN2CC[C@]3(F)C(=O)N(CC(C)(C)C(=O)O)C[C@H]23)NC(c2nccs2)=N[C@H]1c1ccc(F)c(F)c1Cl (single isomer, unassigned) [Compound 209A, 3-((cis)-1-((6-(2-chloro-3,4-difluorophenyl)-5-(methoxycarbonyl)-2-(thiazol-2-yl)-3,6-dihydropyrimidin-4-yl)methyl)-3a-fluoro-4-oxohexahydropyrrolo[3,4-b]pyrrol-5(1H)-yl)-2,2-dimethylpropanoic acid] | 19.1 | 23300
CCOC(=O)C1=C(CN2CC[C@]3(F)C(=O)N(CCC(C)(C)C(=O)O)C[C@H]23)NC(c2nccs2)=N[C@H]1c1cccc(F)c1C (single isomer, unassigned) [Compound 210B] | 97.7 | 48700
CCOC(=O)C1=C(CN2CC(F)(F)C3C(=O)N(CC(C)(C)C(=O)O)C[C@@H]32)NC(c2nccs2)=N[C@@H]1c1ccc(Cl)c(F)c1 (single isomer, unassigned) [Compound 211, 3-((cis)-1-((6-(4-chloro-3-fluorophenyl)-5-(ethoxycarbonyl)-2-(thiazol-2-yl)-3,6-dihydropyrimidin-4-yl)methyl)-3,3-difluoro-4-oxohexahydropyrrolo[3,4-b]pyrrol-5(1H)-yl)-2,2-dimethylpropanoic acid] | 36 | > 50000
CCOC(=O)C1=C(CN2CCC3(F)C(=O)N(CC(C)(C)C(=O)O)CC23)NC(c2nccs2)=N[C@H]1c1cccc(F)c1C (stereo in doubt) [Compound 3, 3-((cis)-1-(((S)-5-(ethoxycarbonyl)-6-(3-fluoro-2-methylphenyl)-2-(thiazol-2-yl)-3,6-dihydropyrimidin-4-yl)methyl)-3a-fluoro-4-oxohexahydropyrrolo[3,4-b]pyrrol-5(1H)-yl)-2,2-dimethylpropanoic acid] | 20.2 | 63100
CCOC(=O)C1=C(CN2CC(F)(F)C3C2CCN3CC(=O)O)NC(c2nccs2)=N[C@H]1c1cccc(F)c1C (stereo in doubt) [Compound 6, 2-((cis)-4-(((S)-5-(ethoxycarbonyl)-6-(3-fluoro-2-methylphenyl)-2-(thiazol-2-yl)-3,6-dihydropyrimidin-4-yl)methyl)-6,6-difluorohexahydropyrrolo-[3,2-b]pyrrol-1(2H)-yl)acetic acid] | 10.4 | 37200
CCOC(=O)C1=C(CN2CC(F)(F)C3CN(C(=O)C(C)(C)C(=O)O)CC32)NC(c2nccs2)=N[C@H]1c1cccc(F)c1C (stereo in doubt) [Compound 9, (cis)-3-(1-(((S)-5-(Ethoxycarbonyl)-6-(3-fluoro-2-methylphenyl)-2-(thiazol-2-yl)-3,6-dihydropyrimidin-4-yl)methyl)-3,3-difluorohexahydropyrrolo[3,4-b]pyrrol-5(1H)-yl)-2,2-dimethyl-3-oxopropanoic acid] | 41.7 | 76300
CCOC(=O)C1=C(CN2CC(F)(F)C3CN(CC(C)(C)C(=O)O)CC32)NC(c2nccs2)=N[C@H]1c1cccc(F)c1C (stereo in doubt) [Compound 12, (cis)-3-(1-(((S)-5-(ethoxycarbonyl)-6-(3-fluoro-2-methylphenyl)-2-(thiazol-2-yl)-3,6-dihydropyrimidin-4-yl)methyl)-3,3-difluorohexahydropyrrolo[3,4-b]pyrrol-5(1H)-yl)-2,2-dimethylpropanoic acid] | 32.4 | 56700
